The subject of experiment [1] is proteasome. Briefly: Proteasome inhibition after NQO1 siRNA knockdown in T24 cells, Western blot. It is filed as cell-based, human. As to conditions: NQO1 siRNA 24 h then MG-132 6 h, FIG. 6C. The protocol: Cell culture and Western blots. Cells were cultured in appropriate media (DMEM+1% p/s+10% FBS) and subcultured as necessary. Tissue homogenates were prepared by removing whole bladders from freshly-sacrificed mice killed with isoflurane inhalation and lysing tissue as a 10% homogenate in ice-cold RIPA buffer (50 mM Tris-Cl, pH 7.4, 150 mM NaCl, 1% NP-40, 1 mM EDTA, 0.5% Na Deoxycholate, and 1% Triton X100 with 1 mM PMSF and 1× Protease Inhibitor Cocktail (Complete, Roche)) using glass and Teflon pestle system, and further clarified via centrifugation at 14000 rpm at 4 degrees for 10 minutes. Homogenates were stored at −80° C. until use. Western blotting was performed essentially according to Towbin H, T. Staehelin, J. Gordon, “Electrophoretic transfer of proteins from polyacrylamide gels to nitrocellulose sheets: procedure and some applications,” Proc Natl Acad Sci USA, v76, pp 4350-4354, 1979.
(§1) FIG. 6A through FIG. 6E are Western blot images that illustrate example NQO1 regulation of energy metabolic regulator factor PGC1α in a bladder of a mouse model for PBS compared to wild-type mouse, according to an embodiment. FIG. 6A is a set of Western blot images that illustrate example relative occurrence of proteins in bladders from wild type mice (left) and NQO1−/− mice (right). Bladders from wild type and NQO1−/− mice were immunoblotted and probed with antibodies as indicated: for NQO1 in blot image 601; for AMPK in blot image 603; for CREB in blot image 605; and, for control GAPDH in blot image 607. FIG. 6B is a set of Western blot images that illustrate example relative occurrence of proteins in T24 human bladder carcinoma cells transfected with control (column C, 100 nM control siRNA) or NQO1-specific siRNA (columns 10, 50 and 150 nM NQO1 siRNA) for 24 h and then immunoblotted with indicated antibodies: for NQO1 in blot image 611; for CREB in blot image 613; for AMPK in blot image 615; for PGC1α in blot image 617; and, for control GAPDH in blot image 619. […]

Experiment [2] relates to NQO1 and 20S proteasome interaction with CREB and AMPK in T24. Put plainly: Immunoprecipitation of CREB and AMPK from T24 cells incubated with B[α]P. It is filed as cell-based, human. As to conditions: B[α]P 0, 10 and 100 nM, 16 h. The procedure: Immunoprecipitation. Human bladder carcinoma T24 cell line was cultured in DMEM+10% FBS+1% p/s at 37 degrees in 5% carbon dioxide before IP studies. Cells were incubated with chemicals as necessary and washed 3× in PBS on ice. Cells were scraped into microfuge tubes using RIPA buffer and protein A/G beads (SANTA CRUZ BIOTECH™ of Santa Cruz, Calif.) were equilibrated with 1 mg aliquots for 1 h. After equilibration, beads were removed and lysates were incubated o/n with 1:100 of relevant antibodies, and next day incubated with 30 microliters A/G beads for 1 h before 3× RIPA buffer wash and boiling 5 mins.
as §1, with “619. FIG. 6C is a set of Western blot images that illustrate example relative occurrence of proteins in T24 human bladder carcinoma cells transfected with control (column C, 100 nM control siRNA) or NQO1-specific siRNA (columns 50 and 100 nM NQO1 siRNA) for 24 h and then incubated for 6 h with vehicle (signified by -) or proteasome inhibitor MG-132 (signified by +) before lysis and separation via SDS-PAGE. The samples were probed with the antibodies indicated: for NQO1 in blot image 621; for CREB in blot image 623; for AMPK in blot image 625; for PGC1α in blot image 627; and, for control GAPDH in blot image 629. FIG. 6D and FIG. 6E are sets of Western blot images that illustrate example relative occurrence of proteins in T24 cells that were incubated for 16 h with B[α]P at concentrations of 0, 10 and 100 nanoMoles (nM, 1 nM=10^−9 Moles) and then immunoprecipitated with antibodies against CREB (in FIG. 6D) and AMPK (in FIG. 6E) overnight. IgG was used as immunoprecipitation control.” for “619.”

Experiment [3] has as its system wild-type and NQO1−/− bladder cells. Put plainly: Ex vivo bladder cell culture, B[α]P-induced ROS (DCF fluorescence). The format is cell-based, mouse. The protocol: Ex-vivo cell culture and chemical treatment. Whole bladders from age-matched female wild-type and NQO1−/− 24 weeks-old mice were excised from euthanized mice and minced in a 10 cm dish with a razorblade. Pieces were suspended in microfuge tubes containing 500 microliters of 1% […] reconstituted in PBS and incubated at 37 degrees with 700 rpm shaking for 45 minutes to dissociate cells from tissue. Tubes were centrifuged at 500 g for 3 minutes to pellet cells, and resuspended in full cell culture media. Cells were plated in 8-well tissue culture chamber slides (e.g., from LAB-TEK™) with cells from one bladder equally divided into one 8-well slide, into 1 mL media total volume. After 2-4 days of growth with daily media changes, cells were treated with various concentrations of benzopyrene dissolved in acetone, or acetone control in fresh media for 18 h, followed by removal and addition of DCF (SIGMA ALDRICH™) at 5 micromolar for 1 h. DCF was then removed and full media added for 1 h, followed by immediate mounting of cover slips in VectaShield (VECTOR LABS™ of Burlingame, Calif.) and viewing under FITC-viewing filter to determine fluorescence of ROS-modified DCF within cells. […]

The results in this text go back to patent US20120208767A1, “Method to Detect or Treat Painful Bladder Syndrome based on Relation to Quinone Oxidoreductase 1” (University of Maryland, Baltimore, priority 2011, published 2012).

Peptide text beside a SMILES is read from it. * marks the point of attachment. Cbz = O=C(OCc1ccccc1)*

Take `CC(C)C[C@@H](C=O)NC(=O)[C@H](CC(C)C)NC(=O)[C@H](CC(C)C)NC(=O)OCc1ccccc1` [MG-132] (Cbz-Leu-Leu-Leu-aldehyde): in experiment [1], the “rescue of AMPK protein from down regulation” value is on record as “rescued from down regulation”, the “rescue of CREB protein from down regulation” value was “rescued from down regulation” and the “rescue of PGC1α protein from down regulation” value is on record as “not PGC1α proteins were rescued from down regulation”.

With benzo[α]pyrene [B[α]P], in experiment [2] (FIG. 6D), the “20S proteasome interaction with CREB” value is given as “more or less did not change” and the “NQO1 interaction with CREB” value was “appears to be increased during stress conditions”. In addition, in experiment [2] (FIG. 6E), the “20S proteasome interaction with AMPK” value is recorded as “more or less did not change” and the “NQO1 interaction with AMPK” value was “appears to be increased during stress conditions”. Moreover, in experiment [3] (100 μM B[α]P, 18 h, cells from 24 week-old female mice, NQO1−/− vs wild-type, P<0.05, FIG. 3C), the “stress signaling (count of ROS-positive, DCF-positive cells normalized to wild-type)” value is given as “significantly stronger stress than does wild-type”. For the same molecule, the “susceptibility to B[α]P-induced generation of reactive oxygen species (ROS)” value in experiment [3] (NQO1−/− bladder cells relative to wild-type bladder cells, ex vivo) is “markedly increased susceptibility”.
